From patent publication US3965109A, “Certain aryl amino pyridines” (priority 1971, dated 1976)

Key:
[1] = system: Puccinia recondita (wheat); test: Fungicidal test against foliar disease A (foliage spray plus soil drench); type: in vivo; conditions: 100 ppm spray and drench; 10 days
[2] = system: Plasmopara viticola (vine); test: Fungicidal test against foliar disease C (foliage spray plus soil drench); type: in vivo; conditions: 100 ppm spray and drench; 10 days
[3] = system: Piricularia oryzae (rice); type: in vivo; conditions: 100 ppm spray and drench; 7 days
[4] = system: Venturia inaequalis (apple); test: Fungicidal test against foliar disease G (foliage spray plus soil drench); type: in vivo; conditions: 100 ppm spray and drench; 21 days
Method: This Example illustrates the fungicidal properties of compounds used as active ingredients in the compositions of the invention. The compounds were tested against a wide variety of foliar fungal diseases of plants. In the test, a composition comprising an aqueous solution or suspension of the test compound was sprayed on to the foliage or uninfected plants; the soil in which the plants were growing was also drenched with the composition. The compositions used for spraying and drencing contained 100 parts per million (ppm.) of the test compound except where otherwise stated in the table of results below. After spraying and drenching, the plants were then exposed to infection with the diseases it was desired to control, along with control plants not treated with the compound. After a period of days, depending upon the particular disease, the extent of the disease was visually assessed, as a percentage of the disease established upon the control plants which had not been treated with the compound under test, according to the grading scheme below
In Table 2 below the names of the disease is given in the first column, and in the second column is given the time which elapsed between exposing the plants to infection and assessing the amount of disease.

[5] = system: Tetranychus telarius (red spider mites, adults); test: Pest toxicity test; type: in vivo; conditions: 0.1% by weight; French bean; 3 days
[6] = system: Tetranychus telarius (red spider mites, eggs); test: Pest toxicity test; type: in vivo; conditions: 0.1% by weight; French bean; 3 days
[7] = system: Aphis fabae; test: Pest toxicity test; type: in vivo; conditions: 0.1% by weight; broad bean; 2 days
[8] = system: Megoura viceae; test: Pest toxicity test; type: in vivo; conditions: 0.1% by weight; broad bean; 2 days
[9] = system: Aedes aegypti (mosquito larvae); test: Pest toxicity test; type: in vivo; conditions: 0.01% by weight; water; 1 day
[10] = system: Aedes aegypti (mosquito adults); test: Pest toxicity test; type: in vivo; conditions: 0.01% by weight; plywood; 1 day
[11] = system: Musca domestica (houseflies); test: Pest toxicity test, contact test; type: in vivo; conditions: 0.1% by weight; milk/sugar; 2 days; flies sprayed directly
[12] = system: Pieris brassicae (cabbage white caterpillars); test: Pest toxicity test; type: in vivo; conditions: 0.1% by weight, 2 days
[13] = system: Plutella maculipennis (diamond back moth larvae); test: Pest toxicity test; type: in vivo; conditions: in vivo
[14] = system: Phaedon cochleariae (mustard beetles); test: Pest toxicity test; type: in vivo; conditions: in vivo
[15] = system: Agrobacterium tumifaciens; test: Antibacterial agar test (B1); type: cell-based; conditions: 50 ppm; 5 days
[16] = system: Corynebacterium michiganense; test: Antibacterial agar test (B2); type: cell-based; conditions: 50 ppm; 5 days
Method: (§1) This Example illustrates the activity of compounds used as the active ingredients of compositions according to the invention against a variety of plant bacterial diseases and fungal post-harvest saprophytic diseases. In a test for such activity, 5 milligrams of the compound to be tested was dissolved or suspended in 10 ml. of acetone and enough of this solution or suspension was added to 18 ml. of nutrient agar (for the bacterial diseases) or 16 ml. of 2% malt agar (for the fungal diseases) to give a final concentration of 50 parts per million of the compound under test. A streptomycin preparation (2 ml. containing 100 units per ml.) was added to the malt agar to prevent bacterial contamination of the fungal tests.
(§2) The agar preparations were dried overnight in Petri dishes and inoculated the following morning with the bacterial or fungal diseases using a multipoint inoculator. The antibacterial activity was assessed after 5 days and the antifungal activity after 6 days. The results of the tests are set out in Table 16 (anti bacterial activity) and Table 17 (antifungal activity). The results are graded as in Example 1 above.

[17] = system: Xanthomonas malvacearum; test: Antibacterial agar test (B3); type: cell-based; conditions: 50 ppm; 5 days
Method: as §1, §2

[18] = system: Erwinia carotovora; test: Antibacterial agar test (B4); type: cell-based; conditions: 50 ppm; 5 days
[19] = system: Xanthomonas oryzae; type: cell-based; conditions: 50 ppm; 5 days
[20] = system: Pseudomonas syringae; test: Antibacterial agar test (B6); type: cell-based; conditions: 50 ppm; 5 days
[21] = system: Streptomyces scabies; test: Antibacterial agar test (B7); type: cell-based; conditions: 50 ppm; 5 days
[22] = system: Phytophthora infestans (tomato); type: in vivo; conditions: 100 ppm spray and drench; 3 days
[23] = system: Uncinula necator (vine); test: Fungicidal test against foliar disease D (foliage spray plus soil drench); type: in vivo; conditions: 100 ppm spray and drench; 10 days
[24] = system: Meloidogyne incognita (nematodes); test: Pest toxicity test; type: in vivo; conditions: 0.01% by weight; water; 1 day
[25] = system: Agriolimax reticulatus (slugs); test: Molluscicidal activity test; type: in vivo, Agriolimax reticulatus (Mull); conditions: pellet with 4% by weight; 6 days; 10°C
Method in brief: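 Slugs were starved for 24 hours, then housed two per dish, in duplicate, under high humidity at 10°C. They fed on pellets dried to contain 4% w/w of test compound. Mortality was scored on day 6.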

[26] = system: Lettuce; test: Herbicidal test, pre- and post-emergence; type: in vivo; conditions: 10 kg/ha; scale 0 to 3 (complete kill)
[27] = system: Tomato; test: Herbicidal test, pre- and post-emergence; type: in vivo; conditions: 10 kg/ha; scale 0 to 3 (complete kill)
[28] = system: Wheat; test: Herbicidal test, pre- and post-emergence; type: in vivo; conditions: 10 kg/ha; scale 0 to 3 (complete kill)
[29] = system: Maize; test: Herbicidal test, pre- and post-emergence; type: in vivo; conditions: 10 kg/ha; scale 0 to 3 (complete kill)

| Compound | Mortality grading (kill) [5] | Mortality grading (kill) [6] | Mortality grading (kill) [7] | Mortality grading (kill) [8] | Mortality grading (kill) [9] | Mortality grading (kill) [10] | Mortality grading (kill), contact test [11] | Mortality grading (kill) [12] | Mortality grading (kill) [13] | Mortality grading (kill) [14] | Antibacterial activity grading B1 [15] | Antibacterial activity grading B2 [16] | Antibacterial activity grading B3 [17] | Antibacterial activity grading B4 [18] | Antibacterial activity grading B5 [19] | Antibacterial activity grading B6 [20] | Antibacterial activity grading B7 [21] | Amount of disease grading, disease C (Table 4) [2] | Amount of disease grading, disease D (Table 4) [23] | Mortality grading (kill) [24] | further results |
| --- | --- | --- | --- | --- | --- | --- | --- | --- | --- | --- | --- | --- | --- | --- | --- | --- | --- | --- | --- | --- | --- |
| COc1nc(F)c(Cl)c(Nc2c(F)c(F)c(C#N)c(F)c2F)c1Cl [Compound 21, 2-Fluoro-3,5-dichloro-6methoxy-4(4-cyano-2,3,5,6-tetrafluoroanilino)pyridine] | 0 (O represents less than 30% kill) | 0 (O represents less than 30% kill) | 0 (O represents less than 30% kill) | 0 (O represents less than 30% kill) | 3 (3 represents over 90% kill) | 0 (O represents less than 30% kill) | 2 (2 represents 60 - 90% kill) | 0 (O represents less than 30% kill) | 1 (key: O represents less than 30% kill; 1 represents 30 - 49% kill; 2 represents 60 - 90% kill; 3 represents over 90% kill; C indicates a chemosterilant effect.; A indicates an antifeeding effect.) | 0 (key: O represents less than 30% kill; 1 represents 30 - 49% kill; 2 represents 60 - 90% kill; 3 represents over 90% kill; C indicates a chemosterilant effect.; A indicates an antifeeding effect.) | 2 (6 to 25) | 3 (0 to 5) | 3 (0 to 5) | 3 (0 to 5) | 2 (6 to 25) | 3 (0 to 5) | 3 (0 to 5) |  |  |  | Amount of disease grading, disease A [1]: 3 (0 to 5); Amount of disease grading, disease C [2]: 3 (0 to 5); Amount of disease grading, disease E [3]: 3 (0 to 5); Amount of disease grading, disease G [4]: 3 (0 to 5) |
| O=[N+]([O-])c1cc(Cl)c(Nc2c(Cl)c(F)nc(F)c2Cl)cc1Cl [Compound 24, 3,5-Dichloro-2,6-difluoro-4(2,5-dichloro-4nitro-anilino)pyridine] | 3 (3 represents over 90% kill) | 0 (O represents less than 30% kill) | 0 (O represents less than 30% kill) | 0 (O represents less than 30% kill) | 3 (3 represents over 90% kill) | 0 (O represents less than 30% kill) | 1 (1 represents 30 - 49% kill) | 0 (O represents less than 30% kill) | 0 (key: O represents less than 30% kill; 1 represents 30 - 49% kill; 2 represents 60 - 90% kill; 3 represents over 90% kill; C indicates a chemosterilant effect.; A indicates an antifeeding effect.) | 0 (key: O represents less than 30% kill; 1 represents 30 - 49% kill; 2 represents 60 - 90% kill; 3 represents over 90% kill; C indicates a chemosterilant effect.; A indicates an antifeeding effect.) | 3 (0 to 5) | 3 (0 to 5) | 3 (0 to 5) | 3 (0 to 5) | 3 (0 to 5) | 3 (0 to 5) | 3 (0 to 5) | 3 (0 to 5) | 3 (0 to 5) | 0 (O represents less than 30% kill) | Amount of disease grading, disease A (Table 4) [1]: 0 (61 to 100); Amount of disease grading, disease B (Table 4) [22]: 3 (0 to 5); Amount of disease grading, disease E (Table 4) [3]: 0 (61 to 100) |
| O=[N+]([O-])c1cc(Cl)cc([N+](=O)[O-])c1Nc1c(Cl)c(F)nc(F)c1Cl [Compound 29, 3,5-Dichloro-2,6-difluoro-4(4-chloro-2,6-dinitroanilino)pyridine] | 3 (3 represents over 90% kill) |  | 3 (3 represents over 90% kill) | 3 (3 represents over 90% kill) | 3 (3 represents over 90% kill) | 0 (O represents less than 30% kill) | 0 (O represents less than 30% kill) | 0 (O represents less than 30% kill) | 0 (key: O represents less than 30% kill; 1 represents 30 - 49% kill; 2 represents 60 - 90% kill; 3 represents over 90% kill; C indicates a chemosterilant effect.; A indicates an antifeeding effect.) | 0 (key: O represents less than 30% kill; 1 represents 30 - 49% kill; 2 represents 60 - 90% kill; 3 represents over 90% kill; C indicates a chemosterilant effect.; A indicates an antifeeding effect.) | 3 (0 to 5) | 3 (0 to 5) | 3 (0 to 5) | 3 (0 to 5) | 3 (0 to 5) | 3 (0 to 5) | 3 (0 to 5) | 3 (0 to 5) | 3 (0 to 5) | 0 (O represents less than 30% kill) | % Kill of slugs [25]: 50%; Damage to plants, post-emergence [26]: 0; Damage to plants, pre-emergence [26]: 3; Damage to plants, post-emergence [27]: 0; Damage to plants, pre-emergence [27]: 3; Damage to plants, post-emergence [28]: 0; Damage to plants, pre-emergence [28]: 3; Damage to plants, post-emergence [29]: 0; Damage to plants, pre-emergence [29]: 0 |
| N#Cc1c(F)c(F)c(Nc2c(Cl)c(F)nc(F)c2Cl)c(F)c1C#N [Compound 33, 3,5-Dichloro-4(3,4-dicyano-2,5,6-trifluoroanilino) 2,6-difluoropyridine] | 3 (3 represents over 90% kill) | 3 (3 represents over 90% kill) | 0 (O represents less than 30% kill) | 0 (O represents less than 30% kill) | 0 (O represents less than 30% kill) | 2 (2 represents 60 - 90% kill) |  | 3 (3 represents over 90% kill) | 1 (key: O represents less than 30% kill; 1 represents 30 - 49% kill; 2 represents 60 - 90% kill; 3 represents over 90% kill; C indicates a chemosterilant effect.; A indicates an antifeeding effect.) | 0 (key: O represents less than 30% kill; 1 represents 30 - 49% kill; 2 represents 60 - 90% kill; 3 represents over 90% kill; C indicates a chemosterilant effect.; A indicates an antifeeding effect.) | 3 (0 to 5) | 3 (0 to 5) | 3 (0 to 5) | 3 (0 to 5) | 3 (0 to 5) | 3 (0 to 5) | 3 (0 to 5) | 3 (0 to 5) | 2 (6 to 25) | 0 (O represents less than 30% kill) | Amount of disease grading, disease A (Table 4) [1]: 2 (6 to 25); Amount of disease grading, disease B (Table 4) [22]: 3 (0 to 5); Amount of disease grading, disease E (Table 4) [3]: 3 (0 to 5) |
